{
  "source": "paper PMC2566978",
  "about": "“Inversion of allosteric effect of arginine on N-acetylglutamate synthase, a molecular marker for evolution of tetrapods” (BMC Biochemistry, 2008)",
  "assay_in_all_cases": "NAGS activity assay, purified enzyme",
  "type_in_all_cases": "biochemical",
  "key": {"[1]": {"molecular_target": "T1, NAGS from X. laevis (African clawed frog) (Xenopus laevis, UniProt A0A8J1M136)", "T1 construct": "gene LOC108702180", "T1 sequence (A0A8J1M136 31-491)": "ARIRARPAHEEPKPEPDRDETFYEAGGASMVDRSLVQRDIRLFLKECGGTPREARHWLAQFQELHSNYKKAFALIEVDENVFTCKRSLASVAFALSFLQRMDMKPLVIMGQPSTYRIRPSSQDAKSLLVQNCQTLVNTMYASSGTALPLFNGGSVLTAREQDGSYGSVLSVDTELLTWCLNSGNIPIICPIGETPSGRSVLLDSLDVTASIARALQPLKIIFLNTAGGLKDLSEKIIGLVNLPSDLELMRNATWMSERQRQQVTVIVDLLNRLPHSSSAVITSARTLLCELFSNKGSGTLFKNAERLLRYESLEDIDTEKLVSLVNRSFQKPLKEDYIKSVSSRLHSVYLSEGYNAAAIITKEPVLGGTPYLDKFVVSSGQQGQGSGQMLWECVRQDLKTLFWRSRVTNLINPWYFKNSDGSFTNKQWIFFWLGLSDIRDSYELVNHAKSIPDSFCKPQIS", "conditions": "50 mM glutamate, 12.5 mM AcCoA, room temperature; allosteric activator"}, "[2]": {"molecular_target": "T2, NAGS from X. tropicalis (Western clawed frog) (Xenopus tropicalis, UniProt F6X3J6)", "T2 sequence (F6X3J6 39-491)": "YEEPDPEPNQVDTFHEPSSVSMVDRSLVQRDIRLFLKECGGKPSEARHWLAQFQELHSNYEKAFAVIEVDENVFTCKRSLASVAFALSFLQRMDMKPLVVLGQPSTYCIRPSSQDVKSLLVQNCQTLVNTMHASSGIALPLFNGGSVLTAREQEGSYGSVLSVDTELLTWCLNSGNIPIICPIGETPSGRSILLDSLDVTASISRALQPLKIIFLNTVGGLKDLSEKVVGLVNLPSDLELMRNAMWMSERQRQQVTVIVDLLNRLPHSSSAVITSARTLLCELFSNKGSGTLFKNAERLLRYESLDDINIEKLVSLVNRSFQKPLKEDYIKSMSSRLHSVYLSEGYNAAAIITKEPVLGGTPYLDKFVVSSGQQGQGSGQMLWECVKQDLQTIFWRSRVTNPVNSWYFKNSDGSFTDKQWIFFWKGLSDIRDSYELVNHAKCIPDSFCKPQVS", "conditions": "50 mM glutamate, 12.5 mM AcCoA, room temperature; allosteric activator"}, "[3]": {"molecular_target": "T3, pufferfish NAGS (Takifugu rubripes, UniProt H2T4D9)", "T3 sequence (H2T4D9 51-529)": "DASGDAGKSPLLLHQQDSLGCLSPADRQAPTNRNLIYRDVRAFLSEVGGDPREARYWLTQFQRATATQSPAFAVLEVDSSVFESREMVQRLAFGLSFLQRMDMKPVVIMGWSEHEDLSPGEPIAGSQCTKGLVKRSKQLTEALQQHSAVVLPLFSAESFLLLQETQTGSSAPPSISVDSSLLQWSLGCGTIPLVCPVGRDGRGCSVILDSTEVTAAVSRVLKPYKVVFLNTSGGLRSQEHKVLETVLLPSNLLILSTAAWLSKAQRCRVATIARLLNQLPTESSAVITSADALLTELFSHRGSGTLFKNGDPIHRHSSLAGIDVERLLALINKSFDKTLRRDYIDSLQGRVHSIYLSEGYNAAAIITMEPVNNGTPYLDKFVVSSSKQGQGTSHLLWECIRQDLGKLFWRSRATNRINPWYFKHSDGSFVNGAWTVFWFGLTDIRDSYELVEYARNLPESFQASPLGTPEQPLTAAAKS", "conditions": "read-out: % inhibition at 1 mM"}, "[4]": {"molecular_target": "T4, zebrafish NAGS (Danio rerio, UniProt E7FCP8)", "T4 sequence (E7FCP8 40-527)": "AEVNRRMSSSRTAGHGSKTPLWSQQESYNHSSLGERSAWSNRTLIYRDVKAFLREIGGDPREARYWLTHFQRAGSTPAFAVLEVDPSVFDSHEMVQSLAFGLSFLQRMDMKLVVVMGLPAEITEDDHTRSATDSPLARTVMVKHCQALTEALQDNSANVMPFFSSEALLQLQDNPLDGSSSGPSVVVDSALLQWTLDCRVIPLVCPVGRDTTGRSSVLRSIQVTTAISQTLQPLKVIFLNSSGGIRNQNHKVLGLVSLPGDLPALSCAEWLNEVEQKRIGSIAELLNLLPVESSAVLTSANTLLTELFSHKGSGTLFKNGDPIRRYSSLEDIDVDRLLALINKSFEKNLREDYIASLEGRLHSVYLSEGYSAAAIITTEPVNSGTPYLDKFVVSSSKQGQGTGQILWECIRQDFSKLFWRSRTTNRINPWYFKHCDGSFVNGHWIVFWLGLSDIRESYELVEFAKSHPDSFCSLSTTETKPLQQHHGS", "conditions": "read-out: % inhibition at 1 mM"}},
  "data": [
    {"smiles": "N=C(N)NCCC[C@H](N)C(=O)O", "note": "[L-arginine]", "values": [
      {"measurement": "% activation at 1 mM", "setting": "[1]", "result": 20, "unit": "%"},
      {"measurement": "% activation at 1 mM", "setting": "[2]", "result": 38, "unit": "%"},
      {"measurement": "inhibition at 1000 µM", "setting": "[3]", "result": "~20", "unit": "%"},
      {"measurement": "inhibition at 1000 µM", "setting": "[4]", "result": "~50", "unit": "%"}
    ]}
  ]
}
